Values after ≈ are worked out from the molar mass of the structure shown. Like-named read-outs stand apart in the source and are kept apart here. Marks after values point to notes of the source that are not given here.
How the values were obtained:
[1] = tested on: Acinetobacter baumannii (A. baumannii, ATCC 19606); assay: MBC determination (in vitro antimicrobial experiment, CFU counting); type: cell-based; conditions: compound alone, A. baumannii (wild-type)
Protocol: (§1) Freeze-dried cultures of Escherichia coli (E. coli, ATCC 25922), Klebsiella pneumoniae (K. pneumoniae, ATCC 13883), Pseudomonas aeruginosa (P. aeruginosa, ATCC 47085), Acinetobacter baumannii (A. baumannii, ATCC 19606), colistin and multidrug-resistant (CMDR) A. baumannii (FADDI-AB156), and CMDR P. aeruginosa (FADDI-PA067) were grown aerobically and maintained by passage at ambient temperature on horse blood agar (10% v/v defibrinated horse blood, 4.4% w/v Oxoid Blood Agar Base No. 2). Overnight cultures were made from transferring a colony (ca. half a loop) from the agar plates to culture tubes containing sterilized Luria-Bertani broth (LB, 1% w/v Bacto™ Tryptone, 1% w/v NaCl, 0.5% w/v Oxoid Yeast Extract) (20 mL). Bacterial cultures were incubated overnight at 37° C. with aeration and without agitation, with the exception of the two P. aeruginosa strains (ATCC 47085 and FADDI-PA067) which were cultured at 37° C. with aeration and agitation (150 rpm). On the next day, for E. coli, K. pneumonia, P. aeruginosa (ATCC 47085), and CMDR P. aeruginosa (FADDI-PA067), small aliquots (i.e., 0.5-3 mL) were taken from the culture tubes, further diluted with LB (20 mL), and incubated for 3-4 h at 37° C. with aeration before use. All bacterial cultures were cultured without agitation, with the exception of P. aeruginosa ATCC 47085 and FADDI-PA067 which were cultured with shaking at 150 rpm. For A. baumannii, an aliquot of 0.5 mL was taken from the overnight culture tube, further diluted with LB (200 mL), and incubated overnight at 37° C. with aeration before use.
(§2) The 96-well plate was then incubated at 37° C. for 1.5 or 3 h. For each well, microbial solution was diluted with saline (0.9% NaCl solution) using an appropriate dilution factor and placed on a LB agar plate (LB broth containing 15 g/L Oxoid Blood Agar Base No. 2). For E. coli, K. pneumoniae, and A. Baumannii (ATCC 19606 and FADDI-AB156), the agar plates were incubated overnight at room temperature, and then at 37° C. with aeration for 2 h. For P. Aeruginosa (ATCC 47085 and FADDI-PA067), the agar plates were incubated at 37° C. with aeration. The number of colony-forming units (CFU) was counted and expressed as CFU/mL. Positive controls consisting of cells without any treatment were used. […] A minimum of two independent experiments (biological replicates) of the assay were conducted and three technical replicates were used in each experiment. Data is expressed as mean±standard deviation (SD) and analysed using student's t-test.

[2] = tested on: Escherichia coli (E. coli, ATCC 25922); assay: as above; type: cell-based
Protocol: as §1, §2

[3] = tested on: Klebsiella pneumoniae (K. pneumoniae, ATCC 13883); assay: as above; type: cell-based
Protocol: as §1, §2

[4] = tested on: Pseudomonas aeruginosa (P. aeruginosa, ATCC 47085); assay: as above; type: cell-based; conditions: compound alone, P. aeruginosa (wild-type)
Protocol: as §1, §2

[5] = tested on: CMDR P. aeruginosa (FADDI-PA067); assay: as above; type: cell-based, Pseudomonas aeruginosa; conditions: compound alone
Protocol: as §1, §2

[6] = tested on: CMDR A. baumannii (FADDI-AB156); assay: as above; type: cell-based, Acinetobacter baumannii; conditions: compound alone
Protocol: as §1, §2

[7] = tested on: Acinetobacter baumannii (A. baumannii, ATCC 19606); assay: S16-antibiotic co-administration, synergy by Bliss Independence and HSA models; type: cell-based; conditions: for Interaction with S16 as evaluated by the Bliss Independence and HSA models (in words) / Antimicrobial activity on co-administration with S16 compared to compounds alone (log change in CFU/mL): A. baumannii wild-type; for Interaction with S16 as evaluated by the Bliss Independence and HSA models (in words): 3 h time point; for Antimicrobial activity on co-administration with S16 compared to compounds alone (log change in CFU/mL): all compounds at MBC50, t=3 h; for MBC in combination / Synergistic? (Yes/No) Bliss* / Synergistic? (Yes/No) HAS*: A. baumannii, 3 h; for MBC in combination: S16 and antibiotic co-administered, each at MBC50; for Synergistic? (Yes/No) Bliss* / Synergistic? (Yes/No) HAS*: antibiotic in combination with S16; for Synergistic? (Yes/No) Bliss*: Bliss Independence model; for Synergistic? (Yes/No) HAS*: Highest Single Agent model
Protocol: as §2
(§3) The Bliss Independence and HSA models were used to calculate drug synergism. […] Biotechnol. 31, 160-165 (2013). With the Bliss Independence model, synergism was calculated using the formula, BICAB=A+B−AB (1), where A and B are the effects of the two drugs in isolation and BICAB is the combined effect of the two drugs as predicted by the Bliss Independence model. […] In the HSA model, if CAB is greater than the greater of A and B, CAB>max(A, B), synergy is observed. The quantitative effect of the compounds when administered alone (i.e., A and B) or in combination (i.e., CAB) was defined as the fractional reduction of the population, R=1−CFUt/CFU0, where CFUt is the CFU/mL measured after treatment, and CFU0 is the CFU/mL measured before treatment.

[8] = tested on: Escherichia coli (E. coli, ATCC 25922); assay: as above; type: cell-based; conditions: for MBC in combination: S16 and antibiotic co-administered, each at MBC50, 3 h; for Antimicrobial activity on co-administration with S16 compared to compounds alone (log change in CFU/mL): all compounds at MBC50, t=3 h; for Synergistic? (Yes/No) Bliss* / Synergistic? (Yes/No) HAS*: antibiotic in combination with S16, 3 h; for Synergistic? (Yes/No) Bliss*: Bliss Independence model; for Synergistic? (Yes/No) HAS*: Highest Single Agent model
Protocol: as §2, §3

[9] = tested on: Klebsiella pneumoniae (K. pneumoniae, ATCC 13883); assay: as above; type: cell-based; conditions: for MBC in combination: S16 and antibiotic co-administered, each at MBC50, 3 h; for Antimicrobial activity on co-administration with S16 compared to compounds alone (log change in CFU/mL): all compounds at MBC50, t=3 h; for Synergistic? (Yes/No) Bliss* / Synergistic? (Yes/No) HAS*: antibiotic in combination with S16, 3 h; for Synergistic? (Yes/No) Bliss*: Bliss Independence model; for Synergistic? (Yes/No) HAS*: Highest Single Agent model
Protocol: as §2, §3

[10] = tested on: Pseudomonas aeruginosa (P. aeruginosa, ATCC 47085); assay: as above; type: cell-based; conditions: for Antimicrobial activity on co-administration with S16 compared to compounds alone (log change in CFU/mL): all compounds at MBC50; for Fold reduction of MBC: MBCeff with S16 versus MBC alone; for MBC in combination: S16 and antibiotic co-administered, each at MBC50; for Synergistic? (Yes/No) Bliss* / Synergistic? (Yes/No) HAS*: antibiotic in combination with S16; for Synergistic? (Yes/No) Bliss*: Bliss Independence model; for Synergistic? (Yes/No) HAS*: Highest Single Agent model
Protocol: as §2, §3

[11] = tested on: CMDR A. baumannii (FADDI-AB156); assay: as above; type: cell-based, Acinetobacter baumannii
Protocol: as §2, §3

[12] = tested on: CMDR A. baumannii (FADDI-AB156); assay: Antibiogram of CMDR A. baumannii (MIC); type: cell-based, Acinetobacter baumannii; conditions: CMDR A. baumannii (FADDI-AB156); for MIC: read-out: MIC; for Susceptibility: interpreted by CLSI resistant breakpoints
[13] = tested on: CMDR P. aeruginosa (FADDI-PA067); assay: Antibiogram of CMDR P. aeruginosa; type: cell-based, Pseudomonas aeruginosa; conditions: interpreted by CLSI resistant breakpoints

| Compound | MBC [4] | MBC [5] | Interaction with S16 as evaluated by the Bliss Independence and HSA models (in words) [7] | Antimicrobial activity on co-administration with S16 compared to compounds alone (log change in CFU/mL) [7] | MBC in combination [7] | Synergistic? (Yes/No) Bliss* [7] | Synergistic? (Yes/No) HAS* [7] | MBC in combination [8] | Antimicrobial activity on co-administration with S16 compared to compounds alone (log change in CFU/mL) [8] | Synergistic? (Yes/No) Bliss* [8] | Synergistic? (Yes/No) HAS* [8] | MBC in combination [9] | Antimicrobial activity on co-administration with S16 compared to compounds alone (log change in CFU/mL) [9] | Synergistic? (Yes/No) Bliss* [9] | Synergistic? (Yes/No) HAS* [9] | Antimicrobial activity on co-administration with S16 compared to compounds alone (log change in CFU/mL) ([10]; P. aeruginosa wild-type, t=3 h) | MBC in combination ([10]; P. aeruginosa, 3 h) | Synergistic? (Yes/No) Bliss* ([10]; P. aeruginosa, 3 h) | Synergistic? (Yes/No) HAS* ([10]; P. aeruginosa, 3 h) | Susceptibility [12] | further results |
| --- | --- | --- | --- | --- | --- | --- | --- | --- | --- | --- | --- | --- | --- | --- | --- | --- | --- | --- | --- | --- | --- |
| CC1(C)S[C@@H]2[C@H](NC(=O)[C@H](N)c3ccccc3)C(=O)N2[C@H]1C(=O)O [Amp, ampicillin] | >5860.0 µM | <1.4 µM | additive | significantly enhanced antimicrobial activity | 1465.4 µM | No | No | 5.7 µM | significantly enhanced antimicrobial activity | No | No | 327.6 µM | significantly enhanced antimicrobial activity | Yes | Yes | significantly enhanced antimicrobial activity | 2930.7 µM | Yes | Yes | Resistant | MBC ([1]; Acinetobacter baumannii, ATCC19606): > 2930 µM; MBC ([2]; Escherichia coli, ATCC25922, compound alone): 9.4 µM (≈ 3.28 µg/mL); MBC ([3]; Klebsiella pneumoniae, ATCC13883, compound alone): 655 µM (≈ 229 µg/mL); MBC ([4]; Pseudomonas aeruginosa, ATCC47085): > 5860 µM; MBC ([5]; Pseudomonas aeruginosa): < 1.4 µM; MBC ([6]; Acinetobacter baumannii): > 2930 µM; Interaction with S16 as evaluated by the Bliss Independence and HSA models (in words) ([8]; 3 h time point): additive; Interaction with S16 as evaluated by the Bliss Independence and HSA models (in words) ([9]; 3 h time point): synergistic; Interaction with S16 as evaluated by the Bliss Independence and HSA models (in words) ([10]; P. aeruginosa wild-type, 3 h time point): synergistic; Fold reduction of MBC ([10]; P. aeruginosa): > 16 fold; Fold reduction of MBC ([10]; P. aeruginosa, listed as ampicillin): more than 16 fold; reduction (printed in parentheses beside fold reduction of MBC) ([10]; P. aeruginosa, antibiotic co-administered with S16): 99.9%; MBC in combination, MBCeff ([10]; P. aeruginosa, co-administered S16 (at MBC50) and antibiotic, antibiotic concentration giving at least 2-log reduction in CFU/mL, 3 h): 366.3^a μM; Interaction with S16 as evaluated by the Bliss Independence and HSA models (in words) ([11]; 3 h time point): synergistic; MBC in combination ([11]; S16 and antibiotic co-administered, each at MBC50, 3 h): 2930.7 µM; Antimicrobial activity on co-administration with S16 compared to compounds alone (log change in CFU/mL) ([11]; all compounds at MBC50, t=3 h): Enhanced antimicrobial activity; Synergistic? (Yes/No) Bliss* ([11]; antibiotic in combination with S16, 3 h, Bliss Independence model): Yes; Synergistic? (Yes/No) HAS* ([11]; antibiotic in combination with S16, 3 h, Highest Single Agent model): Yes; MIC ([12]; Acinetobacter baumannii): > 2930 µM |
| gentamicin | 2.4 µM | <1.1 µM | non-synergistic | did not result in any significant change in activity | 6.0 µM | Yes | No | 2.2 µM | enhanced efficacy | Yes | Yes | 1.1 µM | enhanced efficacy | Yes | Yes | did not result in any significant change in activity | 1.2 µM | No | No | Resistant | MBC [1]: 12.1 µM; MBC ([2]; compound alone): 3.7 µM; MBC ([3]; compound alone): 2.2 µM; MBC [6]: >1104.5 µM; Antimicrobial activity on co-administration with S16 compared to compounds alone (log change in CFU/mL) ([10]; P. aeruginosa, t=1.5 h): enhancement in efficacy; Susceptibility [13]: Resistant; MIC [12]: >1104.5 µM |

— patent US11154589B2, “Antimicrobial composition combinations comprising star shaped peptide polymers” (The University of Melbourne, priority 2016, dated 2021)
